The record followed here is PMC7828228, “Babesia Bovis Ligand-Receptor Interaction: AMA-1 Contains Small Regions Governing Bovine Erythrocyte Binding” (International Journal of Molecular Sciences, 2021).

The subject of assay [1] is bovine erythrocytes. The experiment in a line: Radiolabelled peptide bovine erythrocyte binding assay (initial screen). On the procedure: Peptide selection was based on the degree of conservation and the presence of functionally constricted regions found throughout B. bovis ama-1 gene. Twelve peptides were synthesised using the tert-butoxycarbonyl (t-Boc) strategy and solid-phase synthesis methodology. Cysteine residues were replaced by serine residue to avoid oxidation; a tyrosine residue was added to peptides lacking one in their native sequences to enable radiolabelling. The peptides were analysed using reversed-phase high-performance liquid chromatography (RP-HPLC) and MALDI-TOF mass spectrometry (Bruker Daltonics) after having been cleaved by the low–high hydrogen fluoride technique. Every peptide (10 μL) diluted at 1mg/mL in 4-(2-hydroxyethyl)-1-piperazineethanesulphonic acid buffered saline (HBS) was individually radiolabelled for 15 min using 3 μL Na^125I (100 mCi/mL; ARC) and 15 μL chloramine T (2.75 mg/mL). […] A gamma counter (Packard Cobra II) was used for measuring/quantifying single samples’ radioactivity.
(§1) The assays for every B. bovis AMA-1-derived synthetic peptide binding to bovine erythrocytes were carried out as described for P. falciparum, with some modifications. […] HABP bovine erythrocyte binding selection criteria were determined according to that established for P. falciparum. […]

The subject of assay [2] is bovine erythrocyte membrane receptor. As to the kind of experiment: Cross-linking assay (BS3, SDS-PAGE, autoradiography). In kind it is binding. The note with it: autoradiogram, Figure 2c. Here is the method: Cross-linking assays were used in triplicate for evaluating B. bovis AMA-1 interaction with any membrane receptor. The assay consisted of incubating radiolabelled peptide with 7.5 × 10^7 bovine erythrocytes (v/v) at RT for 2 h at 4 rpm. A competition assay was used as control using an excess of non-radiolabelled peptide. The mixture was incubated for two hours at RT with 0.4 µg/mL bis(sulphosuccinimidyl) suberate (BS3) and then washed thrice with HBS. The cells were then lysed in 30 µL lysis buffer (15 µL buffer A (50 mM Tris-HCl, 100 mM NaCl and 0.1 mM EDTA) and 15 µL buffer B (0.5 M Tris-HCl, 10% SDS (w/v), 25% glycerol, 0.5% (w/v) bromophenol blue and […] β-mercaptoethanol, pH 6.8)) and spun at 14,000× g for 10 min. SDS-PAGE was used for separating the proteins and radioactivity signals were observed by autoradiography. Radiolabelled peptide 43437 (1 µM) binding competition assay involved using different non-radiolabelled peptide 42438 concentrations (0–160 µM).

Assay [3] deals with bovine RBCs. As to the kind of experiment: Saturation assay of radiolabelled HABPs. The note with it: saturation analysis; 7.5 × 10^7 RBCs, radiolabelled HABP 0–6000 nM, ± unlabelled peptide ~26 μM, 90 min at RT, 1:1 interaction model. In kind it is binding. Here is the method:
Modified binding assays were carried out to determine kinetic constants associated with B. bovis AMA-1 HABP binding interaction with bovine RBCs. Briefly, 7.5 × 10^7 RBCs were incubated with a wide range of concentrations of each radiolabelled HABP (0–6000 nM) in the absence or presence of unlabelled peptide (~26 μM) at final 245 μL volume. Samples were incubated for 90 min at RT and then washed twice with HBS before measuring cell-associated radioactivity on a gamma counter. Equilibrium dissociation constants (kD), equivalent to the ligand concentration (moles/litre) occupying half of the receptors, were calculated by equilibrium phase curve (using a 1:1 interaction model). Hill coefficients (nH) were calculated by taking saturation results; positive cooperativity was assumed if nH had values higher than 1 which could have been the result of a binding site’s increased affinity due to a ligand’s previous binding to another site. Conversely, nH values lower than 1 would have indicated negative cooperativity (also called antagonism) and the first ligand molecule’s binding would have reduced the probability of a second molecule binding.

Assay [4] concerns trypsin-, chymotrypsin-, and neuraminidase-treated bovine erythrocytes. The experiment in a line: Binding assay with enzyme-treated erythrocytes. To be noted: 37 °C, 1h 30 min, untreated RBC as control, SD below 5%. On the procedure: A blood sample was obtained by jugular venepuncture from a clinically healthy Normande 18month-old bull and collected in anticoagulant tubes. The animal was properly restrained/fastened and then its head was secured by a strap and rope. After locating the external jugular vein and applying pressure, the area was disinfected with ethanol for inserting the needle at a 30° angle and 20 mL blood samples were collected in tubes containing sodium citrate using the closed system. The above procedures and animal maintenance and handling were carried out at the Remanso farm, according to guidelines for the care of large animals established by Universidad de Ciencias Aplicadas y Ambientales (U.D.C.A)’s ethics committee (regulated by agreement No. 285/2008) using the protocol described in the minute 201901. The collected blood was washed thrice with HBS (1:1 ratio) to eliminate the sera and the leucocyte layer by spinning at 1600× g for 5 min for each run. A 60% erythrocyte solution was incubated at 37 °C for 1h 30 min with trypsin (1 mg/mL), chymotrypsin (1 mg/mL) and neuraminidase (100 μU/mL). After three washes using 250× g for 3 min, 4 × 10^5 erythrocytes were incubated with 5 μM […] at 37 °C for 45 min in the dark. An assay was carried out with erythrocytes treated at 37 °C for 30 min or with 0.05% or 0.005% triton X-100 for 15 min at room temperature (RT) for using them as cell lysis controls. A FACSC Canto II cytometer (BD) was used for determining cell viability by analysing 100,000 events.
as §1

For assay [5], the target named is receptor on bovine erythrocytes having an apparent 75 kDa molecular weight (bovine (endogenous in bovine erythrocytes)). The experiment in a line: radioligand binding; as the screen but on erythrocytes treated beforehand with trypsin (1 mg/mL), chymotrypsin (1 mg/mL) or neuraminidase (100 μU/mL); 1 h at 37 °C without shaking; untreated erythrocytes as control.
For assay [6] the target is unchanged. As to the kind of experiment: radioligand binding; saturation: 7.5 x 10^7 bovine erythrocytes, 125I-peptide 0-6000 nM without or with ~26 μM unlabelled peptide, 245 μL, 90 min at RT, HBS washes; 1:1 model, Hill plot.

Ends that are not written are not given here.

On to CPMHPVRDAIFGKWSGGSCV [compound 42443], for which the “specific binding slope (binding activity)” value in assay [1] (7.5 × 10^7 normal cells, 2 h at RT, radiolabelled peptide 20–200 nM, absence or presence of non-radiolabelled peptide 20 μM, 200 μL, triplicate, HABP if slope ≥0.01 (1%)) is reported as > 0.01. Moreover, in assay [2], the “intensity of cross-linking interaction with the receptor” value is “significantly less intense”. The Kd in assay [3] was determined as 2400 nM. In assay [4] (erythrocytes treated with chymotrypsin 1 mg/mL), the “reduction of binding with chymotrypsin-treated erythrocytes” value stood at 46%. In addition, the “reduction of binding with neuraminidase-treated erythrocytes” value in assay [4] (erythrocytes treated with neuraminidase 100 μU/mL) is given as 42%. For the same molecule, the “reduction of binding with trypsin-treated erythrocytes” value in assay [4] (erythrocytes treated with trypsin 1 mg/mL) was “a lesser effect”.

On to RGVGMNWATYDKDSG [^395R-G^409], for which the “interaction with bovine erythrocytes (binding activity, in words)” value in assay [1] (radiolabelled peptide-cell interaction assay, Figure 1b) was “did not interact with bovine erythrocytes”.

For YMQKFDIPRNHGSGIYVDLG (also: 125I radio-iodination, site not given here) [B. bovis AMA-1 Domain I-derived peptide 42437], in assay [5], the percent reduction of binding, chymotrypsin-treated against untreated erythrocytes was 58%; the percent reduction of binding, neuraminidase-treated against untreated erythrocytes is 36%; the percent reduction of binding, trypsin-treated against untreated erythrocytes stood at 31%. In addition, in assay [6], the Kd worked out at 1100 nM.

Turning to GYESVGSKSYRMPVGKSPVV (also: 125I radio-iodination in tracer use, site not given here) [B. bovis AMA-1 Domain I-derived peptide 42438], the percent reduction of binding, chymotrypsin-treated against untreated erythrocytes in assay [5] came out at 66%. Moreover, in assay [6], the Kd was determined as 1300 nM.
